Several values for one entry are separate records, joined by “and”; a condition that tells them apart may be missing. Equal entries are not always repeated. Where two headings read alike, the source gives them in different places. Blank lines part the entries; values can stand above or below the molecule they belong to.
What was measured:
Format in all cases: physicochemical
[1] = Solubility of processing compounds (stated in the description)
[2] = Keeping test of continuously aerated developers with limited-solubility antioxidants, analysed for CD3 content (Example 2); conditions: about 0.029 molar antioxidant added, developer pH 10.05; rest solid swirling in solution
Experimental: The compounds CSD and MCH were compared with diethyl hydroxylamine at equimolar levels in a developer of the composition shown in Table 2.
The antioxidant level was equivalent to 3.0 ml/l diethyl hydroxylamine (85%); which is about 0.029 molar. The three developers were as follows;
These developers were placed in 500 ml measuring cylinders and stirred continuously with magnetic stirrers to create a vortex depth of about 5 mm in each case in order to ensure continuous aeration.

[3] = Equilibrium level of MCH in circulated potassium carbonate solution on dilution or evaporation (Example 1); conditions: potassium carbonate pH 10.5
Experimental: A circulation system of about 500 ml capacity was set up in which solid N-monocyclohexyl hydroxylamine (MCH) was retained behind a removable filter paper filter. The solution circulated was potassium carbonate at pH=10.5. The solution was left to circulate for 30 minutes and the amount of MCH in solution was determined by removing the paper filter that retained the MCH, drying and weighing it. […] The volume was increased by increments of 10%. In a second part of the experiment most of the solution was removed from the system and evaporated to reduce its volume, again in increments of 10%. Solid MCH came out of solution and was collected on the filter and weighed as before.

Compound: ONC1CCCCC1 [MCH, Mono-N-cyclohexylhydroxylamine]
- share of the antioxidant in solution in the developer [2]: About 90%
- solubility ([1]; aqueous buffer, at developer pH (10.0)): 3900 µg/mL to 4000 µg/mL and ~26000 µM
- time for the MCH level to adjust itself to the initial level after dilution or evaporation [3]: ≤ 30 min
- MCH in Solution ([3]; volume 70 % relative to initial (evaporation)): 4.03 g/L
- MCH in Solution ([3]; volume 80 % relative to initial (evaporation)): 3.92 g/L
- MCH in Solution ([3]; volume 90 % relative to initial (evaporation)): 3.88 g/L
- MCH in Solution ([3]; volume 100 % relative to initial, 30 minutes): 3.80 g/1
- MCH in Solution ([3]; volume 110 % relative to initial, 30 minutes): 3.81 g/L
- MCH in Solution ([3]; volume 120 % relative to initial, 30 minutes): 3.87 g/L
- MCH in Solution ([3]; volume 130 % relative to initial, 30 minutes): 4.11 g/L
- MCH in Solution ([3]; volume 140 % relative to initial, 30 minutes): 4.05 g/L
- MCH in Solution ([3]; volume 150 % relative to initial, 30 minutes): 3.96 g/L

Compound: ON(Cc1ccccc1)Cc1ccccc1 [dibenzyl-hydroxylamine, reference compound]
- solubility in water [1]: almost entirely insoluble in water

The next lines start with results.

- solubility [1]: 500 µg/mL to 1000 µg/mL and ~5000 µM
Compound: CCCNc1nc(NO)nc(NO)n1 [CSD, 4,5-dihydroxylamino-2-propylamino-1,3,5-triazine]

- share of the antioxidant in solution in the developer [2]: completely in solution
Compound: CCN(O)CC [Diethyl hydroxylamine, reference compound]
- solubility in water [1]: essentially miscible in all proportions with water

- solubility in water [1]: too soluble
Compound: CC(C)(C)NO [mono-t-butyl-hydroxylamine, reference compound]

From patent US6541191B2, “Photographic processing solutions” (Eastman Kodak Company, priority 1996, dated 2003)
